Each structure is given as a SMILES string. Numbers after ± are expanded uncertainties.

For this data set the following is noted: Liquid, Closed cell (Static) method.

In the case of `CCC(N)CCN` (stereo not given) [1,3-pentanediamine], the vapor or sublimation pressure (commonly the pressure of vapour in equilibrium with the condensed phase) by setting is: (273.15 K) 0.026 ± 0.002 kPa; (283.15 K) 0.064 ± 0.005 kPa; (293.15 K) 0.144 ± 0.01 kPa; (303.15 K) 0.299 ± 0.019 kPa; (313.15 K) 0.585 ± 0.037 kPa; (323.15 K) 1.081 ± 0.028 kPa. For the same compound, the “vapor or sublimation pressure” value was determined as 1.902 ± 0.023 kPa (333.15 K), 3.206 ± 0.032 kPa (343.15 K), 5.201 ± 0.045 kPa (353.15 K) and 8.153 ± 0.065 kPa (363.15 K).
As for `CC(CN)CCCN` (stereo not given) [2-methyl-1,5-pentanediamine], the “vapor or sublimation pressure” value runs as follows: (273.15 K) 0.004 ± 0.001 kPa; (283.15 K) 0.011 ± 0.001 kPa; (293.15 K) 0.028 ± 0.002 kPa; (303.15 K) 0.065 ± 0.005 kPa; (313.15 K) 0.137 ± 0.009 kPa; (323.15 K) 0.274 ± 0.017 kPa. Besides, the “vapor or sublimation pressure” value amounted to 0.519 ± 0.033 kPa (333.15 K), 0.934 ± 0.024 kPa (343.15 K), 1.611 ± 0.022 kPa (353.15 K) and 2.67 ± 0.028 kPa (363.15 K).

(Values after the NIST ThermoML archive (doi:10.1016/j.jct.2014.12.008).)
